Reference: patent EP4711371A1 (priority 2023, dated 2024)
Where two headings read alike, the source gives them in different places.

Assays:
Assay type in all cases: cell-based
NCI-N87 = assay: In vitro proliferation inhibition assay of camptothecin derivatives (Payload), Test Example 1; details: Homo sapiens, NCI-N87, 96 h, read-out: NCI-N87 IC50
Excerpt: (§1) The control compounds used in the experiment were DXD (synthesized from EXD according to the synthesis method of patent EP2907824B1. EXD was purchased from MedChemExpress, catalog number: HY-13631A) and SN38 (purchased from Bide Pharmatech, catalog number BD8481). Their structural formulas are [drawing 515] respectively.
(§2) The cell lines used in this experiment were human breast cancer cells SK-BR-3, T47D, MDA-MB-453, human malignant melanoma cells A375, human lung squamous carcinoma cells NCI-H1703, and human gastric cancer cells NCI-N87. Cell suspensions were prepared in fresh cell culture medium containing 10% FBS and then diluted to a density of 5 × 10^4 cells/mL, 10×10^4 cells/mL, 100 µL per well was added to a 96-well cell culture plate (Thermo catalog number: 167425), and cultured at 37°C with 5% carbon dioxide for 24 h.
(§3) The test compounds of the present invention and the control compounds were each prepared to 10 mM stock solutions in DMSO, and the drugs were diluted with 5% FBS 1640 culture medium in a gradient of 50, 10, 2, 0.4, 0.08, 0.016, 0.0032, 0.00064, 0.000128, and 0 µM, with two replicates for each well.
(§4) 50 µL of cell supernatant was pipetted from each 96-well plate, followed by the addition of 50 µL of compound dilutions at final […] of 25, 5, 1, 0.2, 0.04, 0.008, 0.0016, 0.00032, 0.000064, and 0 µM. After mixing, the cells were cultured in a constant temperature CO2 incubator for 4 days. Cell supernatant was then added with 100 µL of detection reagent (5% FBS1640 medium and CCK-8 solution in a 10:1 ratio) and incubated in an incubator for 4 hours. […] was read on a microplate reader (TECAN, Spark), and data were analyzed using Graphpad Prism 8 software.

SK-BR-3 = assay: as above; details: Homo sapiens, SK-BR-3, 96 h, read-out: SK-BR-3 IC50
Excerpt: as §1, §2, §3, §4

A375 = assay: as above; details: Homo sapiens, A-375, 96 h, read-out: A375 IC50
Excerpt: as §1, §2, §3, §4

NCI-H1703 = assay: as above; details: Homo sapiens, NCI-H1703, 96 h, read-out: NCI-H1703 IC50
Excerpt: as §1, §2, §3, §4

MDA-MB-453 [1] = assay: as above; details: Homo sapiens, MDA-MB-453, 96 h, read-out: MDA-MB-453 IC50
Excerpt: as §1, §2, §3, §4

T47D [2] = assay: cells; details: Homo sapiens, 96 h
Excerpt: as §1, §2, §3, §4

T47D [3] = assay: cells; details: Homo sapiens, 120 h, read-out: T47D IC50
Method: (§5) Test Example 2 In vitro proliferation inhibition assay of the camptothecin derivatives (Payload) of the present invention on tumor cells 1. Instruments and Reagents
(§6) 2. Experimental Procedure • a. Plating & culture: MDA-MB-453 (purchased from: Xiehe, catalog number: 1101HUM-PUMCO00016)/T47D (Kebai, CBP60397)/HT1376 cells (purchased from: Kebai, catalog number: CBP60310) were cultured into 96-well plates by a density of 1×10^3 /2×10^3 /1×10^3 cells per100 µL, and 200 µL of PBS was added to the outermost circle (to reduce the volatilization of the culture medium), and cultured at 37°C, 5% CO2 incubator for 24 h; • b. Drug Addition & Incubation: The 96-well flat-bottom plate was retrieved. The culture medium in the wells was aspirated, and 100 µL of the ADC drug/payload (diluted in culture medium) was added to each well. The plate was then incubated at 37°C, 5% CO2 incubator for 5 days. 3. Detection and data processing • a. The 96-well plate was retrieved. The culture medium was removed, and 100 µL of detection reagent (CCK8:medium= 1:9) was added to each well. The plate was then placed in a 37°C, 5% CO2 incubator for 4 hours; • b. The optical density (OD) at 450 nm was measured using a microplate reader (model: CEY0017), and the data was recorded with Excel. • c. Graphpad Prism 9.0 was used to analyze and organize the data.

HT1376 = assay: In vitro proliferation inhibition assay of camptothecin derivatives (Payload), Test Example 2; details: Homo sapiens, HT-1376, 120 h, read-out: HT1376 IC50
Method: as §5, §6

MDA-MB-453 [4] = assay: as above; details: Homo sapiens, MDA-MB-453, 120 h, read-out: MDA-MB-453 IC50
Method: as §5, §6

[5] = payload, cultured 4 days, CCK-8
[6] = payload, cultured 4 days, CCK-8, ~ indicates estimated IC50 value
[7] = payload, cultured 4 days, CCK-8, read-out: T47D IC50

Question: What does the source list for `CC[C@@]1(OC(=O)CCN2CCN(C)CC2)C(=O)OCc2c1cc1n(c2=O)Cc2c-1nc1cc(F)c(C)c3c1c2[C@@H](N)CC3` [Compound 2]?
Answer: IC50 (NCI-N87; [5]): 3.75 nM; IC50 (SK-BR-3; [5]): 1.56 nM

Question: Which results are given for `CCC1(OC(=O)Cc2ccc(OC3OC(CO)C(O)C(O)C3O)cc2)C(=O)OCc2c1cc1n(c2=O)Cc2c-1nc1cc(F)c(C)c3c1c2C(N)CC3` (stereo not drawn) [Compound 3]?
Answer: IC50 (NCI-N87): 1.91 nM; IC50 (SK-BR-3): 1.04 nM

Question: With `CC[C@@]1(OC(=O)CCN2C(=O)c3ccccc3C2=O)C(=O)OCc2c1cc1n(c2=O)Cc2c-1nc1cc(F)c(C)c3c1c2[C@@H](N)CC3` [Compound 4] as the molecule, how does the IC50 (NCI-N87; [5]) read?
Answer: 381 nM

Question: What about the IC50 (SK-BR-3; [5]) of the same molecule?
Answer: 183 nM

Question: Which IC50 (NCI-N87; [5]) does the source give for `CC[C@@]1(OC(=O)Cn2cc(F)c(=O)[nH]c2=O)C(=O)OCc2c1cc1n(c2=O)Cc2c-1nc1cc(F)c(C)c3c1c2[C@@H](N)CC3` [Compound 6] here?
Answer: 2.23 nM

Question: What about the IC50 (A375; [6]) of the same molecule?
Answer: 0.164 nM

Question: What about the IC50 (NCI-H1703; [5]) of the same molecule?
Answer: 0.59 nM

Question: What about the IC50 (SK-BR-3; [5]) of the same molecule?
Answer: 1.23 nM

Question: And the IC50 (MDA-MB-453 [1]; [5])?
Answer: 4.24 nM

Question: And the IC50 (T47D [2]; [7])?
Answer: 0.742 nM

Question: Which results are given for `CC[C@@]1(OC(=O)CCOCCOCCOCCOC)C(=O)OCc2c1cc1n(c2=O)Cc2c-1nc1cc(F)c(C)c3c1c2[C@@H](N)CC3` [Compound 7]?
Answer: IC50 (A375; [6]): 0.714 nM; IC50 (NCI-H1703; [5]): 0.064 nM; IC50 (MDA-MB-453 [1]; [5]): 570 nM; IC50 (T47D [2]; [7]): 245 nM

Question: Which IC50 (NCI-H1703; [5]) does the source give for `CC[C@@]1(OC(=O)COc2ccc(Cl)cc2C)C(=O)OCc2c1cc1n(c2=O)Cc2c-1nc1cc(F)c(C)c3c1c2[C@@H](N)CC3` [Compound 9] here?
Answer: 0.149 nM

Question: And the IC50 (MDA-MB-453 [1]; [5])?
Answer: 3.86 nM

Question: And the IC50 (T47D [2]; [7])?
Answer: 0.804 nM

Question: What does the source list for `CC[C@@]1(O)C(=O)OCc2c1cc1n(c2=S)Cc2c-1nc1cc(F)c(C)cc1c2CN` [Compound 11]?
Answer: IC50 (T47D [3]): 0.141 nM; IC50 (NCI-N87): 1.56 nM; IC50 (SK-BR-3): 0.906 nM; IC50 (HT1376): 3.85 nM; IC50 (MDA-MB-453 [4]): 0.645 nM

Question: With `CC[C@@]1(O)C(=O)OCc2c1cc1n(c2=S)Cc2c-1nc1cc(F)c(C)cc1c2CNC(=O)CO` [Compound 17] as the molecule, how does the IC50 (NCI-N87) read?
Answer: 0.999 nM

Question: And the IC50 (SK-BR-3)?
Answer: 0.675 nM

Question: And the IC50 (MDA-MB-453 [1])?
Answer: 1.14 nM

Question: What about the IC50 (T47D [2]; read-out: T47D IC50) of the same molecule?
Answer: 0.172 nM

Question: Which results are given for `CC[C@@]1(O)C(=O)OCc2c1cc1n(c2=O)Cc2c-1nc1cc(F)c(C)c3c1c2[C@@H](NC(=O)CO)CC3` [DXD, Dxd, reference compound]?
Answer: IC50 (NCI-N87): 5.97 nM; IC50 (A375): 0.131 nM; IC50 (NCI-H1703): 0.472 nM; IC50 (SK-BR-3): 3.62 nM; IC50 (MDA-MB-453 [1]): 2.87 nM; IC50 (T47D [2]; read-out: T47D IC50): 1.02 nM

Question: Which IC50 (T47D [3]) does the source give for `CC[C@@]1(O)C(=O)OCc2c1cc1n(c2=O)Cc2c-1nc1cc(F)c(C)c3c1c2[C@@H](N)CC3` [EXD, Exatecan, reference compound] here?
Answer: 0.221 nM

Question: What about the IC50 (NCI-N87) of the same molecule?
Answer: 1.45 nM

Question: What about the IC50 (NCI-H1703) of the same molecule?
Answer: 0.00789 nM

Question: What about the IC50 (SK-BR-3) of the same molecule?
Answer: 0.866 nM

Question: And the IC50 (MDA-MB-453 [1])?
Answer: 1.02 nM

Question: What about the IC50 (HT1376) of the same molecule?
Answer: 8.71 nM

Question: And the IC50 (MDA-MB-453 [4])?
Answer: 0.902 nM

Question: And the IC50 (T47D [2]; read-out: T47D IC50)?
Answer: 0.729 nM

Question: `CC[C@@]1(O)C(=O)OCc2c1cc1n(c2=S)Cc2cc3cc(N)c(F)cc3nc2-1` [Example 46] was tested. Which IC50 (NCI-N87) did it give?
Answer: 0.229 nM

Question: And the IC50 (SK-BR-3)?
Answer: 0.0155 nM

Question: Which IC50 (NCI-N87; [5]) does the source give for `CCc1c2c(nc3ccc(O)cc13)-c1cc3c(c(=O)n1C2)COC(=O)[C@]3(O)CC` [SN38, SN-38, reference compound] here?
Answer: 5.38 nM

Question: What about the IC50 (SK-BR-3; [5]) of the same molecule?
Answer: 2.51 nM

Question: What about the IC50 (MDA-MB-453 [1]; [5]) of the same molecule?
Answer: 32.8 nM

Question: What about the IC50 (T47D [2]; read-out: T47D IC50) of the same molecule?
Answer: 2.11 nM
